# Reference: patent US20250382305A1 (PTC THERAPEUTICS, INC., priority 2022, published 2025)
# pIC50: −log10 of the molar value.
# Assays:
# [1] = tested on: Total ATXN3 (tATXN3) protein; experiment: Endogenous Total ATXN3 (tATXN3) Protein Assay (MSD immunoassay of cell lysates); assay type: cell-based; settings: average IC50, total ATXN3 protein in cell lysate after 48 h with compound (Table 1)
# Procedure: Endogenous Total ATXN3 (tATXN3) Protein Assay
# Meso Scale Discovery (MSD) 96-well or 384-well plates were coated overnight at 4° C. with Ataxin 3 mouse monoclonal antibody (Invitrogen, MA3-082) at a concentration of 0.5 μg/mL in PBS (30 μL per well). Plates were then washed three times with 300 μL wash buffer (0.05% TWEEN®-20, polyethylene glycol sorbitan monolaurate, in PBS) and blocked (Meso Scale Diagnostics, R93BA-1; 5% BSA in PBS) for 2 h at RT with rotational shaking and then washed three times with wash buffer.
# (§1) Test compounds were serially diluted 3.16-fold in 100% DMSO to generate a 7-point concentration curve. Aliquots of 0.5 μL of diluted compounds were transferred to a 96-well flat bottom plate by a liquid handler. An aliquot of 0.5 μL DMSO was also transferred to separate wells and used as controls. Duplicate samples were set up for each compound concentration and for the DMSO control.
# Cells were thawed and incubated in cell culture media (DMEM, 10% FBS, and 1% antibiotic cocktail) for 72 h. Cells were trypsinized, counted, and re-suspended to a concentration of 100,000 cells/mL in cell culture media. A 100 μL aliquot of the cell suspensions were plated at 10,000 cells per well in the compound containing 96 well microtiter plate and incubated for in a cell culture incubator (37° C., 5% CO2, 100% relative humidity). After 48 h, the medium was removed and 50-100 μL of lysis buffer (Meso Scale Diagnostics, R60TX-2) containing 1× halt protease inhibitor cocktail of (Thermo Scientific, Halt™ Protease Inhibitor Cocktail, 78430) per well was added to cells to provide a “cell lysate”. The plate was placed on a shaker at 4° C. for 30 minutes, then stored at −80° C.
# Cell lysate samples (25 μL) were transferred to the antibody-coated MSD plate and incubated overnight at 4° C. After removal of the lysates, the plate was washed three times with wash buffer, and 25 μL of Ataxin 3 recombinant rabbit monoclonal antibody (Invitrogen, #702788) secondary antibody (diluted to 0.25 μg/mL in 0.05% TWEEN®-20 in blocking buffer) was added to each well and incubated with shaking for 1-2 h at room temperature. Following incubation with the secondary antibody, the wells were rinsed with wash buffer and then 25 μL of Anti Rabbit Antibody Goat SULFO-TAG Labeled (Meso Scale Diagnostics, R32AB-1) detecting antibody (diluted to […] in 0.05% TWEEN®-20 in blocking buffer) was added to each well and incubated with shaking for 1 h at room temperature. After rinsing three times with wash buffer, 150 μL of Read Buffer T with surfactant (tris-based buffer containing tripropylamine, Meso Scale Diagnostics, R92TC-1) were added to each empty well, and the plate was imaged on a SI 6000 imager (MSD) according to manufacturers' instructions provided for 96- or 384-well plates.
# (§2) An average IC50>1 μM is indicated by one star (*), between >0.3 μM and ≤1 μM is indicated by two stars (**), between >0.03 μM and ≤0.3 μM is indicated by three stars (***), and ≤0.03 μM is indicated by four stars (****).
# ATXN3 pre-mRNA = experiment: RT-qPCR Assay to Quantify Exon 4 Skipping in ATXN3 pre-mRNA in Cells; assay type: cell-based; settings: percent exon 4 skipping in ATXN3 pre-mRNA, RT-qPCR of cell lysates; average IC50
# Procedure: RT-qPCR Assay to Quantify Exon 4 Skipping in ATXN3 pre-mRNA in Cells
# as §1
# Cells were thawed and incubated in cell culture media (DMEM, 10% FBS, and 1% antibiotic cocktail) for 72 h. Cells were trypsinized, counted, and re-suspended to a concentration of 100,000 cells/mL in cell culture media. A 100 μL aliquot of the cell suspensions were plated at 10,000 cells per well in the compound containing 96 well microtiter plate and incubated for in a cell culture incubator (37° C., 5% CO2, 100% relative humidity).
# After 24 h, media was aspirated from the cells and 50 μL of the RCL2 lysis buffer (10 mM Tris-HCL pH 7.4, 150 mM NaCl, 0.33% IGEPAL® CA-630) was added to each well and incubated at RT for 1 min. Chilled nuclease free water (50 μL per well) was added and the plates were immediately transferred on ice. After 1 min on ice, plates were frozen at −80° C. overnight.
# Preparation of RT-qPCR Reaction Mixture:
# An aliquot of 2 μL/well of the cell lysates was transferred using the liquid handler to the Armadillo 384-Well PCR plate containing 8 μL/well of the RT-qPCR reaction mixture that was prepared as detailed above. The plates were then sealed with MicroAmp™ Optical Adhesive Film followed by spinning down for 1 min and placed in the CFX384 thermocycler (BioRad).
# The RT-qPCR was carried out at the following temperatures for the indicated time: • Step 1: 48° C. (30 min) • Step 2: 95° C. (10 min) • Step 3: 95° C. (15 sec) • Step 4: 60° C. (1 min); then, repeated Steps 3 and 4 for a total of 40 cycles.
# The percent exon 4 skipping was calculated for each dose of compound treatment using Equations 1 and 2.
# Data were fit to a dose response curve and the IC50 was interpolated using XLfit® statistical and curve fitting package.
# as §2
Molecule,pIC50 [1],pIC50 (ATXN3 pre-mRNA)
"C#Cc1c([C@@H]2CCOC[C@H]2N)sc2c(NCc3ccco3)nc(Cl)nc12.C#Cc1c([C@H]2CCOC[C@@H]2N)sc2c(NCc3ccco3)nc(Cl)nc12 (mixture of isomers) [Compound 330, 6-((3R,4S)-3-aminotetrahydro-2H-pyran-4-yl)-2-chloro-7-ethynyl-N-(furan-2-ylmethyl)thieno[3,2-d]pyrimidin-4-amine and 6-((3S,4R)-3-aminotetrahydro-2H-pyran-4-yl)-2-chloro-7-ethynyl-N-(furan-2-ylmethyl)thieno[3,2-d]pyrimidin-4-amine]",6.52 to 7.52,6.52 to 7.52
"N[C@@H]1CCCO[C@H]1c1sc2c(NCc3ccccc3F)cc(Cl)nc2c1Br.N[C@H]1CCCO[C@@H]1c1sc2c(NCc3ccccc3F)cc(Cl)nc2c1Br (mixture of isomers) [Compound 29, 2-((2R,3R)-3-aminotetrahydro-2H-pyran-2-yl)-3-bromo-5-chloro-N-(2-fluorobenzyl)thieno[3,2-b]pyridin-7-amine and 2-((2S,3S)-3-aminotetrahydro-2H-pyran-2-yl)-3-bromo-5-chloro-N-(2-fluorobenzyl)thieno[3,2-b]pyridin-7-amine]",6.52 to 7.52,6.52 to 7.52
"2-((2R,3R)-3-aminotetrahydrofuran-2-yl)-3-bromo-5-chloro-N-(thiophen-2-ylmethyl)thieno[3,2-b]pyridin-7-amine and 2-((2S,3S)-3-aminotetrahydrofuran-2-yl)-3-bromo-5-chloro-N-(thiophen-2-ylmethyl)thieno[3,2-b]pyridin-7-amine [Compound 151]",6.52 to 7.52,6.52 to 7.52
"N[C@@H]1CCCO[C@H]1c1sc2c(NCc3cccs3)cc(Cl)nc2c1Br [Compound 49, 2-((2R,3R)-3-aminotetrahydro-2H-pyran-2-yl)-3-bromo-5-chloro-N-(thiophen-2-ylmethyl)thieno[3,2-b]pyridin-7-amine]",< 6.00,< 6.00
"N[C@@H]1CCCCCC[C@@H]1c1sc2c(NCc3cccs3)cc(Cl)nc2c1Br [Compound 101, 2-((1S,2R)-2-aminocyclooctyl)-3-bromo-5-chloro-N-(thiophen-2-ylmethyl)thieno[3,2-b]pyridin-7-amine]",< 6.00,< 6.00
"2-((3R,4R)-3-aminotetrahydro-2H-pyran-4-yl)-3-bromo-5-chloro-N-(thiophen-2-ylmethyl)thieno[3,2-b]pyridin-7-amine and 2-((3S,4S)-3-aminotetrahydro-2H-pyran-4-yl)-3-bromo-5-chloro-N-(thiophen-2-ylmethyl)thieno[3,2-b]pyridin-7-amine [Compound 146]",< 6.00,< 6.00
"CC#CCNc1cc(Cl)nc2c(Cl)c([C@H]3CC=CC[C@@H]3N)sc12 [Compound 250, 2-((1S,6S)-6-aminocyclohex-3-en-1-yl)-N-(but-2-yn-1-yl)-3,5-dichlorothieno[3,2-b]pyridin-7-amine]",6.52 to 7.52,6.52 to 7.52
"6-((3R,4S)-3-aminotetrahydro-2H-pyran-4-yl)-7-bromo-2-chloro-N-(furan-2-ylmethyl)thieno[3,2-d]pyrimidin-4-amine and 6-((3S,4R)-3-aminotetrahydro-2H-pyran-4-yl)-7-bromo-2-chloro-N-(furan-2-ylmethyl)thieno[3,2-d]pyrimidin-4-amine [Compound 339]",6.52 to 7.52,6.52 to 7.52
"Cc1c([C@H]2CC=CC[C@@H]2N)sc2c(NCc3ccco3)nc(Cl)nc12 [Compound 193, 6-((1S,6S)-6-aminocyclohex-3-en-1-yl)-2-chloro-N-(furan-2-ylmethyl)-7-methylthieno[3,2-d]pyrimidin-4-amine]",≥ 7.52,≥ 7.52
"N[C@@H]1CCCO[C@H]1c1sc2c(NCc3ccco3)cc(Cl)nc2c1Br [Compound 118, 2-((2R,3R)-3-aminotetrahydro-2H-pyran-2-yl)-3-bromo-5-chloro-N-(furan-2-ylmethyl)thieno[3,2-b]pyridin-7-amine]",6.00 to 6.52,6.00 to 6.52
"N[C@@H]1CCCC[C@H]1c1sc2c(NCc3cccs3)cc(Cl)nc2c1Br [Compound 54, 2-((1R,2R)-2-aminocyclohexyl)-3-bromo-5-chloro-N-(thiophen-2-ylmethyl)thieno[3,2-b]pyridin-7-amine]",6.52 to 7.52,6.52 to 7.52
"6-((1S,2S)-2-aminocyclohexyl)-2,7-dichloro-5-(difluoromethyl)-N-(furan-2-ylmethyl)-5H-pyrrolo[3,2-d]pyrimidin-4-amine and 6-((1R,2R)-2-aminocyclohexyl)-2,7-dichloro-5-(difluoromethyl)-N-(furan-2-ylmethyl)-5H-pyrrolo[3,2-d]pyrimidin-4-amine [Compound 334]",6.52 to 7.52,6.52 to 7.52
"N[C@H]1COCC[C@@H]1c1sc2c(NCc3nccs3)cc(Cl)nc2c1I [Compound 265, 2-((3R,4S)-3-aminotetrahydro-2H-pyran-4-yl)-5-chloro-3-iodo-N-(thiazol-2-ylmethyl)thieno[3,2-b]pyridin-7-amine]",6.52 to 7.52,≥ 7.52
"CCc1c([C@H]2CCC[C@@H]2N)sc2c(NCc3cccs3)cc(Cl)nc12 [Compound 11, 2-((1S,2S)-2-aminocyclopentyl)-5-chloro-3-ethyl-N-(thiophen-2-ylmethyl)thieno[3,2-b]pyridin-7-amine]",6.00 to 6.52,6.52 to 7.52
"6-((2R,3R)-3-aminotetrahydro-2H-pyran-2-yl)-2-chloro-N-(furan-2-ylmethyl)-7-iodothieno[3,2-d]pyrimidin-4-amine and 6-((2S,3S)-3-aminotetrahydro-2H-pyran-2-yl)-2-chloro-N-(furan-2-ylmethyl)-7-iodothieno[3,2-d]pyrimidin-4-amine [Compound 243]",≥ 7.52,≥ 7.52
"2-((1R,2R)-2-amino-5,5-difluorocyclohexyl)-5-chloro-3-methyl-N-(thiophen-2-ylmethyl)thieno[3,2-b]pyridin-7-amine and 2-((1S,2S)-2-amino-5,5-difluorocyclohexyl)-5-chloro-3-methyl-N-(thiophen-2-ylmethyl)thieno[3,2-b]pyridin-7-amine [Compound 333]",6.52 to 7.52,6.52 to 7.52
"CC#CCNc1cc(Cl)nc2c(Br)c([C@@H]3CC=CC[C@H]3N)sc12 [Compound 429, 2-((1R,6R)-6-aminocyclohex-3-en-1-yl)-3-bromo-N-(but-2-yn-1-yl)-5-chlorothieno[3,2-b]pyridin-7-amine]",≥ 7.52,≥ 7.52
"2-((4R,5S)-5-aminoazepan-4-yl)-3-bromo-5-chloro-N-(thiophen-2-ylmethyl)thieno[3,2-b]pyridin-7-amine and 2-((4S,5S)-5-aminoazepan-4-yl)-3-bromo-5-chloro-N-(thiophen-2-ylmethyl)thieno[3,2-b]pyridin-7-amine [Compound 148]",< 6.00,< 6.00
